Format in all cases: biochemical
Experiment [1] addresses T1, human PI3Kα (PIK3CA/PIK3R1) (Homo sapiens, UniProt P42336).
T1 construct: purchased ProQinase, Germany 1161‐1165‐1
In words: lipid kinase assay (ADP-Glo), PI3Kα. As to conditions: for IC50: mean of at least three determinations, 95 % confidence intervals; for inhibition at 1 µM: determined at 1 μM, at least triplicate, read-out: Inhibitory activity, PI3K isoform α. The protocol: (§1) In vitro selection, lipid kinase assay: To determine the inhibitory activity of the new molecular entities on PI3K enzyme, a lipid kinase assay was performed: recombinant proteins (30 ng), human PI3Kα (PIK3CA/PIK3R1, #1161‐1165‐1 ProQinase–Germany), hPI3Kβ (PIK3CB wt/PIK3R1, #1168‐1165‐1 ProQinase, Germany), hPI3Kγ (PIK3CG, #1163‐0000‐1 ProQinase, Germany), hPI3Kδ (PIK3CD/PIK3R1, #1162–1165‐1 ProQinase, Germany), hPI3K‐C2α (PIK3C2A, #14‐906 Merck Millipore_Merck KGaA, Germany), hPI3K‐C2β (PIK3C2B, #14‐907 Merck Millipore_Merck KGaA, Germany), hPI3K‐c2γ (PIK3C2G, #1207‐0000‐1 ProQinase, Germany), and hVps34 (PIK3C3, #1160‐0000‐1 ProQinase, Germany), were incubated in kinase buffer {12.5 μL; 20 mM Tris‐HCl pH 7.5, 10 mM MgCl2, 10 μM ATP, 0.05 mg mL^−1 BSA, 0.5 mM EDTA, 5 mM HEPES pH 7.5, for PI3Kα,PI3Kβ, PI3Kγ, PI3Kδ, PI3KC‐2α, and PI3KC‐2γ; 15 mM MnCl2, 5 mM EGTA, 100 μM ATP, 50 mM HEPES pH 7.5, 100 mM NaCl, and 0.03 % CHAPS for PI3K‐C2β and VPS34 {BSA=bovine serum albumin; EDTA=ethylenediaminetetraacetic acid; HEPES=4‐(2‐hydroxyethyl)‐1‐piperazineethanesulfonic acid; EGTA=ethylene glycol‐bis(2‐aminoethylether)‐N,N,N′,N′‐tetraacetic acid; CHAPS=3‐[(3‐cholamidopropyl)dimethylammonio]‐1‐propanesulfonate}. In the reaction, the ATP concentration used for different PI3Ks was defined on the basis of the Michaelis–Menten kinetics of each enzyme, provided by the supplier. Reaction was performed in presence of 0.5 mg mL^−1 lipid micelles (1:1 phosphatidylinositol/phosphatidylserine) and in the absence (DMSO alone) or presence of increasing concentrations of each compound (from 0.1 nM to 30 μM). The mixture was kept at room temperature (RT) for 30 min for PI3Kα, PI3Kβ, PI3Kγ, PI3Kδ, PI3KC‐2α, and PI3KC‐2γ and for 1 h for PI3K‐C2β and PI3K‐C3. The amount of ADP produced in the reaction was measured by using the ADP‐Glo Kinase Assay kit from Promega (#V9102) and a luminescence reader (Glomax multi detection system, Promega, model number 9301‐010).
(§2) The residual PI3K lipid kinase activity in the presence of each molecule at different concentrations was related to the control, intended as the recombinant protein in the presence of DMSO alone and was expressed as a percentage. To derive the IC50 value, all data (% of lipid kinase activity) were plotted on a dose–response curve (Graph Pad software), and the IC50 was calculated by using nonlinear regression fit (equation [log agonist] versus response).
In general terms: ADP-Glo turns the ADP formed in a reaction into a luminescent signal.

Experiment [2] addresses T2, hPI3Kδ (PIK3CD/PIK3R1) (Homo sapiens, UniProt O00329).
T2 construct: purchased ProQinase, Germany 1162–1165‐1
In words: lipid kinase assay (ADP-Glo), PI3Kδ. Conditions: for inhibition at 1 µM: determined at 1 μM, at least triplicate, read-out: Inhibitory activity, PI3K isoform δ. The protocol:
as §1, §2

Experiment [3] deals with T3, hPI3Kγ (PIK3CG) (Homo sapiens, UniProt P48736).
T3 construct: purchased ProQinase, Germany 1163‐0000‐1
In words: lipid kinase assay (ADP-Glo), PI3Kγ. Conditions: for inhibition at 1 µM: determined at 1 μM, at least triplicate, read-out: Inhibitory activity, PI3K isoform γ. On the procedure:
as §1, §2

The target in experiment [4] is T4, hPI3Kβ (PIK3CB wt/PIK3R1) (Homo sapiens, UniProt P42338).
T4 construct: purchased ProQinase, Germany 1168‐1165‐1
In words: lipid kinase assay (ADP-Glo), PI3Kβ. Conditions: for inhibition at 1 µM: determined at 1 μM, at least triplicate, read-out: Inhibitory activity, PI3K isoform β. On the procedure:
as §1, §2

Setting [5] is: Table 3, analogues of 37, read-out: IC50 against PI3Kα.
Setting [6] is: Table 2, mean of at least three determinations, 95 % confidence intervals.

These results are taken from paper PMC5697638, “Identification of a Potent Phosphoinositide 3‐Kinase Pan Inhibitor Displaying a Strategic Carboxylic Acid Group and Development of Its Prodrugs” (Chemmedchem, 2017).

Broadly, the IC50 is the concentration that inhibits the measured activity by half.

Structures are written as SMILES. Read-outs that look alike come from different tables or passages of the source. Where only a bound is given, the exact number is not on record here.

T1 sequence (P42336 whole entry): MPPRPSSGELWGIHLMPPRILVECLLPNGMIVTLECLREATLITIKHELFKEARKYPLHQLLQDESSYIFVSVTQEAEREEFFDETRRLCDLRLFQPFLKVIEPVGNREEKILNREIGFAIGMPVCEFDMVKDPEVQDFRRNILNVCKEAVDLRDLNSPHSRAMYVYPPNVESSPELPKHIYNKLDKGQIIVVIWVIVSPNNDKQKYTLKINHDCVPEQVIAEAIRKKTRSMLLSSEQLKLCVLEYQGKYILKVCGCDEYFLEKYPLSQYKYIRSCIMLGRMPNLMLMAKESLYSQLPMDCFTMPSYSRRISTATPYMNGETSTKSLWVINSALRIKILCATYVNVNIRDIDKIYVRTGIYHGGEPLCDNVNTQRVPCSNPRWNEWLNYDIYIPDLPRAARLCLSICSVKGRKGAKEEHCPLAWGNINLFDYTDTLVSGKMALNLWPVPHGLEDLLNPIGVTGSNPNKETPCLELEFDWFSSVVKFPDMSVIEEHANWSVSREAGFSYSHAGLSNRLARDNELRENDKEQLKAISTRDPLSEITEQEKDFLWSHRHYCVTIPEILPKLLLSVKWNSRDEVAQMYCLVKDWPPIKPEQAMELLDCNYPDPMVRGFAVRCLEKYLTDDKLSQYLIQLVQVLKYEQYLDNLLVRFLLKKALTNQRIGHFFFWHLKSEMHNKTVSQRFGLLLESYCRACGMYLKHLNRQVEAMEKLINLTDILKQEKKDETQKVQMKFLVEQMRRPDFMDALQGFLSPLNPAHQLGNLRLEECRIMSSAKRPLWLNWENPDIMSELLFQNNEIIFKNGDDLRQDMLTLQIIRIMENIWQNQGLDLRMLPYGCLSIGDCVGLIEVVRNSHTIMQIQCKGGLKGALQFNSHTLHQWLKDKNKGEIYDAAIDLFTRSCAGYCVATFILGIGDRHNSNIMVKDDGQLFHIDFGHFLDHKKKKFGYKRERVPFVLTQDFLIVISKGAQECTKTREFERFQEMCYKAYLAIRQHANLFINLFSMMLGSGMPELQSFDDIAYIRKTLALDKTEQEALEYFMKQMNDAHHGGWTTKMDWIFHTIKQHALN
T1 sequence (P27986 whole entry partner): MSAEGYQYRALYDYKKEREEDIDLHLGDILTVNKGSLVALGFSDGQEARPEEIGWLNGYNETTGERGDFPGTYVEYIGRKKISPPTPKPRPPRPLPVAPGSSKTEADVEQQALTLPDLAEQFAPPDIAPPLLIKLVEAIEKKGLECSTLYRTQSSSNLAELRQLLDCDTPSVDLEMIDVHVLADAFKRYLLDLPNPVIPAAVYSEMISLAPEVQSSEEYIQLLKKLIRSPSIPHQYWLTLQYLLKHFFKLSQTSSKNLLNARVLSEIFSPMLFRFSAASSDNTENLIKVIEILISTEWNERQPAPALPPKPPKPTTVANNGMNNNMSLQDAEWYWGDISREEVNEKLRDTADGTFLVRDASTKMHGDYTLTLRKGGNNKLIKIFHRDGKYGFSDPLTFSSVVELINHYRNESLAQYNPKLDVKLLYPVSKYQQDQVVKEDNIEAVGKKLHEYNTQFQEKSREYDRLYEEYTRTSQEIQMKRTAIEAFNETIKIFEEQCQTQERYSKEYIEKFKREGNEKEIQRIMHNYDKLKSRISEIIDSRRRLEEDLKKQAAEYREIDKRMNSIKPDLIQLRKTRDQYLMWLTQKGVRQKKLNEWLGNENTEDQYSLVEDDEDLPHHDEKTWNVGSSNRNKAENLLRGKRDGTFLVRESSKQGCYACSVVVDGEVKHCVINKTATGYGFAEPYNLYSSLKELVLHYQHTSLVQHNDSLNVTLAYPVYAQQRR
T4 sequence (P42338 whole entry): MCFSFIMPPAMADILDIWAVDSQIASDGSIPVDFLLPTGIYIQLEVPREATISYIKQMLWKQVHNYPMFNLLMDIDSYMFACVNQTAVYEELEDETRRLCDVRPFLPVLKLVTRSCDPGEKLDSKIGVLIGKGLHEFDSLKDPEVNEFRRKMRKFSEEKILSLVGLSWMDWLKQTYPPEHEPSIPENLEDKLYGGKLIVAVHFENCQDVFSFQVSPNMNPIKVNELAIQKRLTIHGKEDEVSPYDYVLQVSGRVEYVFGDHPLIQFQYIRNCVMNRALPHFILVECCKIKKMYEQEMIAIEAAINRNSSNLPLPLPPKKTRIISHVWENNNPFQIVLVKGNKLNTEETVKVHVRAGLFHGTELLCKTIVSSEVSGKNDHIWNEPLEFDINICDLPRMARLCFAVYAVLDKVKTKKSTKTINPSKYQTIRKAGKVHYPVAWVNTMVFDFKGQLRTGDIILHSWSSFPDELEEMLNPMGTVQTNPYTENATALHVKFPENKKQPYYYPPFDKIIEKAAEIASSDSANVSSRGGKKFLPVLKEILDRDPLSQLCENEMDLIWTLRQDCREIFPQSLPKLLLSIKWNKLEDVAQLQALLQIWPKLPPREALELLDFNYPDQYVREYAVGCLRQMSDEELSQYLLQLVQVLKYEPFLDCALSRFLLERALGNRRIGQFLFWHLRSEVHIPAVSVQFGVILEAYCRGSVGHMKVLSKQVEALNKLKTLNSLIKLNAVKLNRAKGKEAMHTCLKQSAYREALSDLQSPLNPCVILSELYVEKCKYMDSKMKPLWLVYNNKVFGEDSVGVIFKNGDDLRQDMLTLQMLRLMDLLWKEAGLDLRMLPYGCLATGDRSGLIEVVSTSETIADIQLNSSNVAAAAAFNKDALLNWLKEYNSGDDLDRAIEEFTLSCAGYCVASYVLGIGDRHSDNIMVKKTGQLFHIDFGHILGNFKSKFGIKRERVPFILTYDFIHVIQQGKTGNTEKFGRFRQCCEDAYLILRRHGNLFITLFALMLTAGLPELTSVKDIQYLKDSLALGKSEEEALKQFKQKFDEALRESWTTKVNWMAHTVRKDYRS
T4 sequence (P27986 whole entry partner): as the sequence (P27986 whole entry partner) above
T2 sequence (O00329 whole entry): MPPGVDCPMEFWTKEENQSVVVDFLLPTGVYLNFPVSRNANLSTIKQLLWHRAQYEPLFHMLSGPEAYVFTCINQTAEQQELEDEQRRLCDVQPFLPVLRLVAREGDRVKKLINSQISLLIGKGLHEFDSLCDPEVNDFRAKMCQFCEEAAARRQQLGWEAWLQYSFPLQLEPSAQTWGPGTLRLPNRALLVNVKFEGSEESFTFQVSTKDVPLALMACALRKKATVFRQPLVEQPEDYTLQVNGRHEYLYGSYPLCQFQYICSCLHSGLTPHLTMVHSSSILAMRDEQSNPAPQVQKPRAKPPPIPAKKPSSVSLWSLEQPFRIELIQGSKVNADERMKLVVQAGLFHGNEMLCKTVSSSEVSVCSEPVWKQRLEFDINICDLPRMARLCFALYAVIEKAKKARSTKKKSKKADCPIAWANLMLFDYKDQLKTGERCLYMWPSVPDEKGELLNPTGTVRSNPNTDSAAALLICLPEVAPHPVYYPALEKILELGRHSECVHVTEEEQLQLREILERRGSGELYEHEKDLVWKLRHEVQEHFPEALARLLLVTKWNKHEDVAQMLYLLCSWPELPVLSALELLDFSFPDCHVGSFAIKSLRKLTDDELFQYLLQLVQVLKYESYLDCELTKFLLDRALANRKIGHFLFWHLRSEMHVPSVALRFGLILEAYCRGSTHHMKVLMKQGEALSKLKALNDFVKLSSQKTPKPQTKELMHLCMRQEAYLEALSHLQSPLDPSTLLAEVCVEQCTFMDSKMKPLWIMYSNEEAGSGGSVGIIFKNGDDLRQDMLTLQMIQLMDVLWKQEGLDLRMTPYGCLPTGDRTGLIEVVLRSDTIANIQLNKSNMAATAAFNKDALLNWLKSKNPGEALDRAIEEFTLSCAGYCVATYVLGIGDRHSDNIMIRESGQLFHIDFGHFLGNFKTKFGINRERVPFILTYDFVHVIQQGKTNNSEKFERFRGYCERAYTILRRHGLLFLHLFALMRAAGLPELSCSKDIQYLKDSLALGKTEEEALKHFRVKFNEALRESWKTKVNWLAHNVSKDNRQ
T2 sequence (P27986 whole entry partner): as the sequence (P27986 whole entry partner) above
T3 sequence (P48736 whole entry): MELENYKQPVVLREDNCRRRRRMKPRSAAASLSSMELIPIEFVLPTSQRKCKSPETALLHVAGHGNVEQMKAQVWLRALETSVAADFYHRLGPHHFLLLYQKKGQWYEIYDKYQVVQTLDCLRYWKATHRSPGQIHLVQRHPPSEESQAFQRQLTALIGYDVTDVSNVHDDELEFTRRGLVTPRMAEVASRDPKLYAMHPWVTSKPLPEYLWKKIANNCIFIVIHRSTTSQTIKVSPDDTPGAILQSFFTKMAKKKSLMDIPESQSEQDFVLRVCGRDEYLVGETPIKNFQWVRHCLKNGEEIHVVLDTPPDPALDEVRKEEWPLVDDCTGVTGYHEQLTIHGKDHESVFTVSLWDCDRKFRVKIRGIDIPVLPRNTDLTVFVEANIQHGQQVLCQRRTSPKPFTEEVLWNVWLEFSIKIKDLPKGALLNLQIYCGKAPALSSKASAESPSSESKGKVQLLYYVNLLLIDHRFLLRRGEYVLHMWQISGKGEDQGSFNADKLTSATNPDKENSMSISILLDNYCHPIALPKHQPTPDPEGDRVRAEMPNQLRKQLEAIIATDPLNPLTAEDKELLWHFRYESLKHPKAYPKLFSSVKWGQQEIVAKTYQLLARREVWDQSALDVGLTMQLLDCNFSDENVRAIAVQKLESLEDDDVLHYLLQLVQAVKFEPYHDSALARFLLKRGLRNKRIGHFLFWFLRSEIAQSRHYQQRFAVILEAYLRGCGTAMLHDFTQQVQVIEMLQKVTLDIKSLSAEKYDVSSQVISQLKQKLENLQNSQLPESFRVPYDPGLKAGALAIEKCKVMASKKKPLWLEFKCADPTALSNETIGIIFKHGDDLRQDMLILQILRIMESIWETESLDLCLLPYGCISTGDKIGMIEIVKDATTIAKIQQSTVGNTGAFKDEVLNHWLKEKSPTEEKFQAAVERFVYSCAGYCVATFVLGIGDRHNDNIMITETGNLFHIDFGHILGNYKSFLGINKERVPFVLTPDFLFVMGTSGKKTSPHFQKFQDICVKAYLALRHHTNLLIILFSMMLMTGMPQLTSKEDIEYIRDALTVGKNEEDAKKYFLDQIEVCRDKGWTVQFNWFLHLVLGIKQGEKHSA

On to `O=C(O)CCCCCn1cc(-c2cccc3c(=O)cc(N4CCOCC4)[nH]c23)nn1` [Compound 57], for which the 50% inhibitory concentration (IC50) in experiment [1] (setting [5]) is > 1000 nM.

In the case of `COc1cc(OC)cc(-n2cc(-c3cccc4c(=O)cc(N5CCOCC5)[nH]c34)nn2)c1` [Compound 47, 8‐[1‐(3,5‐Dimethoxyphenyl)‐1H‐1,2,3‐triazol‐4‐yl]‐2‐morpholinoquinolin‐4(1H)‐one], the inhibition at 1 µM in experiment [1], in experiment [2], in experiment [3] and in experiment [4] was < 50% throughout.

In the case of `COC(=O)c1ccc(Cn2cc(-c3cccc4c(=O)cc(N5CCOCC5)[nH]c34)nn2)cc1` [Compound 31, Methyl‐4‐{[4‐(2‐morpholino‐4‐oxo‐1,4‐dihydroquinolin‐8‐yl)‐1H‐1,2,3‐triazol‐1‐yl]methyl}benzoate], the inhibition at 1 µM in experiment [1], in experiment [2], in experiment [3] and in experiment [4] was < 50% throughout.

For the molecule `O=C(O)c1cccc(-n2cc(-c3cccc4c(=O)cc(N5CCOCC5)[nH]c34)nn2)c1` [Compound 52, 3‐[4‐(2‐Morpholino‐4‐oxo‐1,4‐dihydroquinolin‐8‐yl)‐1H‐1,2,3‐triazol‐1‐yl]benzoic acid], the inhibition at 1 µM in experiment [1], in experiment [2], in experiment [3] and in experiment [4] was < 50% throughout.

Take `CCN(CC)C(=O)c1cccc(Cn2cc(-c3cccc4c(=O)cc(N5CCOCC5)[nH]c34)nn2)c1` [Compound 62, N,N ‐Diethyl‐3‐{[4‐(2‐morpholino‐4‐oxo‐1,4‐dihydroquinolin‐8‐yl)‐1H‐1,2,3‐triazol‐1‐yl]methyl}benzamide]: in experiment [1] (setting [5]), the IC50 is 290 ± 80 nM.

For the molecule `O=c1cc(N2CCOCC2)[nH]c2c(-c3cn(-c4ccccc4)nn3)cccc12` [Compound 25, 2‐Morpholino‐8‐(1‐phenyl‐1H‐1,2,3‐triazol‐4‐yl)quinolin‐4(1H)‐one], the IC50 in experiment [1] (Table 2, read-out: IC50 PI3Kα) amounted to 740 ± 310 nM; in experiment [2] (setting [6]), 610 ± 270 nM; in experiment [3] (setting [6]), 3000 ± 1000 nM; in experiment [4] (setting [6]) it was 5500 ± 2500 nM. Also, the inhibition at 1 µM was > 50% in experiment [1], > 50% in experiment [2], < 50% in experiment [3] and < 50% in experiment [4].

`COc1ccc(-n2cc(-c3cccc4c(=O)cc(N5CCOCC5)[nH]c34)nn2)cc1[N+](=O)[O-]` [Compound 30, 8‐[1‐(4‐Methoxy‐3‐nitrophenyl)‐1H‐1,2,3‐triazol‐4‐yl]‐2‐morpholinoquinolin‐4(1H)‐one]: the inhibition at 1 µM in experiment [1], in experiment [2], in experiment [3] and in experiment [4] was < 50% each time.

As to `COc1ccc(-n2cc(-c3cccc4c(=O)cc(N5CCOCC5)[nH]c34)nn2)cc1` [Compound 44, 8‐[1‐(4‐Methoxyphenyl)‐1H‐1,2,3‐triazol‐4‐yl]‐2‐morpholinoquinolin‐4(1H)‐one], the inhibition at 1 µM in experiment [1], in experiment [2], in experiment [3] and in experiment [4] was < 50% throughout.

Turning to `O=C(NCc1ccccc1)c1cccc(Cn2cc(-c3cccc4c(=O)cc(N5CCOCC5)[nH]c34)nn2)c1` [Compound 60, N ‐Benzyl‐3‐{[4‐(2‐morpholino‐4‐oxo‐1,4‐dihydroquinolin‐8‐yl)‐1H‐1,2,3‐triazol‐1‐yl]methyl}benzamide], in experiment [1] (setting [5]), the IC50 turned out to be 140 ± 90 nM.

On to `Cc1cc(O)ccc1-n1cc(-c2cccc3c(=O)cc(N4CCOCC4)[nH]c23)nn1` [Compound 40, 8‐[1‐(4‐Hydroxy‐2‐methylphenyl)‐1H‐1,2,3‐triazol‐4‐yl]‐2‐morpholinoquinolin‐4(1H)‐one], for which the inhibition at 1 µM in experiment [1], in experiment [2], in experiment [3] and in experiment [4] was < 50% in each case.

As to `O=c1cc(N2CCOCC2)[nH]c2c(-c3cn(-c4ccc(OC(F)(F)F)cc4)nn3)cccc12` [Compound 29, 2‐Morpholino‐8‐{1‐[4‐(trifluoromethoxy)phenyl]‐1H‐1,2,3‐triazol‐4‐yl}quinolin‐4(1H)‐one], the inhibition at 1 µM in experiment [1], in experiment [2], in experiment [3] and in experiment [4] was < 50% in each case.

`COC(=O)c1cccc(-n2cc(-c3cccc4c(=O)cc(N5CCOCC5)[nH]c34)nn2)c1` [Compound 49, Methyl 3‐[4‐(2‐morpholino‐4‐oxo‐1,4‐dihydroquinolin‐8‐yl)‐1H‐1,2,3‐triazol‐1‐yl]benzoate]: the inhibition at 1 µM in experiment [1], in experiment [2], in experiment [3] and in experiment [4] was < 50% in each case.

As for `O=c1cc(N2CCOCC2)[nH]c2c(-c3cn(-c4ccc5ccccc5c4)nn3)cccc12` [Compound 34, 2‐Morpholino‐8‐[1‐(naphthalen‐2‐yl)‐1H‐1,2,3‐triazol‐4‐yl]quinolin‐4(1H)‐one], the inhibition at 1 µM in experiment [1], in experiment [2], in experiment [3] and in experiment [4] was < 50% each time.

As for `COc1ccc(-n2cc(-c3cccc4c(=O)cc(N5CCOCC5)[nH]c34)nn2)cc1O` [Compound 27, 8‐[1‐(3‐Hydroxy‐4‐methoxyphenyl)‐1H‐1,2,3‐triazol‐4‐yl]‐2‐morpholinoquinolin‐4(1H)‐one], the inhibition at 1 µM in experiment [1], in experiment [2], in experiment [3] and in experiment [4] was < 50% throughout.

As to `O=c1cc(N2CCOCC2)[nH]c2c(-c3cn(Cc4cccc(-c5nnn[nH]5)c4)nn3)cccc12` [Compound 63, 8‐{1‐[3‐(1H‐Tetrazol‐5‐yl)benzyl]‐1H‐1,2,3‐triazol‐4‐yl}‐2‐morpholinoquinolin‐4(1H)‐one], the IC50 in experiment [1] (setting [5]) was > 1000 nM.

For the molecule `NC(=O)c1cccc(Cn2cc(-c3cccc4c(=O)cc(N5CCOCC5)[nH]c34)nn2)c1` [Compound 59, 3‐{[4‐(2‐Morpholino‐4‐oxo‐1,4‐dihydroquinolin‐8‐yl)‐1H‐1,2,3‐triazol‐1‐yl]methyl}benzamide], the 50% inhibitory concentration (IC50) in experiment [1] (setting [5]) was found to be 800 ± 740 nM.

As to `O=C(NC1CC1)c1cccc(Cn2cc(-c3cccc4c(=O)cc(N5CCOCC5)[nH]c34)nn2)c1` [Compound 61, N ‐Cyclopropyl‐3‐{[4‐(2‐morpholino‐4‐oxo‐1,4‐dihydroquinolin‐8‐yl)‐1H‐1,2,3‐triazol‐1‐yl]methyl}benzamide], the IC50 in experiment [1] (setting [5]) was found to be 250 ± 80 nM.

As to `O=C(O)CCCn1cc(-c2cccc3c(=O)cc(N4CCOCC4)[nH]c23)nn1` [Compound 55, 4‐[4‐(2‐Morpholino‐4‐oxo‐1,4‐dihydroquinolin‐8‐yl)‐1H‐1,2,3‐triazol‐1‐yl]butanoic acid], in experiment [1] (setting [5]), the 50% inhibitory concentration (IC50) was > 1000 nM.

Take `CS(=O)(=O)NC(=O)c1cccc(Cn2cc(-c3cccc4c(=O)cc(N5CCOCC5)[nH]c34)nn2)c1` [Compound 58, N ‐(Methylsulfonyl)‐3‐{[4‐(2‐morpholino‐4‐oxo‐1,4‐dihydroquinolin‐8‐yl)‐1H‐1,2,3‐triazol‐1‐yl]methyl}benzamide]: in experiment [1] (setting [5]), the 50% inhibitory concentration (IC50) is > 1000 nM.

Regarding `O=C(O)CCCCn1cc(-c2cccc3c(=O)cc(N4CCOCC4)[nH]c23)nn1` [Compound 56, 5‐[4‐(2‐Morpholino‐4‐oxo‐1,4‐dihydroquinolin‐8‐yl)‐1H‐1,2,3‐triazol‐1‐yl]pentanoic acid], the concentration for half-maximal inhibition (IC50) in experiment [1] (setting [5]) was > 1000 nM.
